Assays:
primary human myotubes = test: TNF induced myotube atrophy, MYOSCREEN platform (Example 10); type: cell-based; parameters: Myotube Area mean: unit not given here; conditions: for Fusion Index mean / Myotube Area mean: TNFalpha 10 ng/mL, N=3
Procedure: Methods: Experiment was performed using the […] platform (CYTOO, France). Briefly, […] is a proprietary technology based on micropatterning and defined microenvironments that establish highly mature primary human myotubes with substantial striation and low morphological variability. Primary cells derived from skeletal muscle of healthy human donors are differentiated to form myotubes (multinucleated syncytia) that are highly reminiscent of human muscle tissue. […] is a fully automated platform that interrogates multiple phenotypes relevant for muscle physiology including myotube area, fusion index, and total nuclei. On Day 0 expanded primary myoblasts from a healthy human donor were seeded at 10,000 cells per well for 24 hour at 37 deg C. […] Importantly, treatment groups were prepared in PBS and final concentration in all wells, including controls, was 10% PBS. On Day 2 cells were switched to Cirrhosis Media based on DMEM comprising 0.1% horse serum and 0.5× amino acids at ratios of plasma of cirrhosis (Kakazu et al., 2013) containing atrophy inducer TNFalpha (10 ng/mL) and again treated according to Day 1 and Table 16. On Day 6 cells were fixed with 5% Formalin for 30 minutes at room temperature. Fixed cells were processed for immunostaining with primary antibody against Troponin T to stain myotubes and Hoeschst dye for nuclei. Image acquisition was done at 10× magnification using Operetta High Content Imaging System and analysis was performed using a proprietary and dedicated algorithm on the Acapella High Content Imaging System (Perkin Elmer, CYTOO).

[1] = tested on: C3A derivative clone of the HepG2 Hepatocellular Carcinoma cell line; test: Hepatic albumin production in cirrhosis media, ELISA normalized to nuclei (Example 9); type: cell-based, human; conditions: for Albumin/Nuclei (mean): 48 hours
Procedure: Media composed of amino acids consistent with profiles of cirrhotic individuals was tested for effect on production of albumin. Effects of […], components and comparator compositions on albumin production were determined. Methods: The ability of […] to increase hepatocyte albumin production was assessed using the C3A derivative clone of the HepG2 Hepatocellular Carcinoma cell line (ATCC, CRL-10741). 2.0e4 cells per well were seeded on day 0 in a 96-well microplate (Corning; 3903) in Dulbecco's Modified Eagle Medium (DMEM, Corning) supplemented with 10% fetal bovine serum (Corning) and 0.2% Primocin (InVivoGen, San Diego, Calif.) and incubated for 24 hours at 37° C., 5% CO2. […] Cells were cultured for 48 hours at 37° C., 5% CO2, media was collected, cells were washed 1× in PBS, fixed in 4% paraformaldehyde, washed 2× in PBS, nuclei were stained with Hoechst 33342 according to manufacturer's instructions (Life Technologies, H3570) and then washed 2× in PBS. Media albumin levels were assessed by R&D Systems's DuoSet ELISA Development System for Human Serum Albumin (R&D Systems, DY1455) and nuclei were counted using Molecular Devices Image Express High Content Screening platform and pre-installed nuclei counting analysis pipeline. Albumin levels were normalized to total nuclei in order to derive a per cell albumin production ratio.

[2] = dose 5X of concentration in cirrhosis media
[3] = dose 10x of concentration in cirrhosis media
[4] = dose 20X of concentration in cirrhosis media
[5] = dose 30X of concentration in cirrhosis media

CC(C)C[C@H](N)C(=O)O [L, L-leucine]
Effect on Atrophy (primary human myotubes; TNF induced myotube atrophy, overall call across doses): no effect | Fusion Index mean (primary human myotubes; [2]): 0.087 | Myotube Area mean (primary human myotubes; [2]): 4499.140 | Fusion Index mean (primary human myotubes; [3]): 0.094 | Myotube Area mean (primary human myotubes; [3]): 4480.850 | Fusion Index mean (primary human myotubes; [4]): 0.091 | Myotube Area mean (primary human myotubes; [4]): 4679.729 | Fusion Index mean (primary human myotubes; [5]): 0.092 | Myotube Area mean (primary human myotubes; [5]): 4579.231 | Albumin/Nuclei (mean) ([1]; Dose 5X of basal media concentrations): −0.087 | Albumin/Nuclei (mean) ([1]; Dose 10X of basal media concentrations): −0.116 | Albumin/Nuclei (mean) ([1]; Dose 20X of basal media concentrations): −0.219 | Albumin/Nuclei (mean) ([1]; Dose 40X of basal media concentrations): 0.148 | Effect on Albumin ([1]; over the dose curve 5X-40X): No Effect

Source: patent US11571404B2, “Compositions and methods for the treatment of liver diseases and disorders associated with one or both of hyperammonemia or muscle wasting” (priority 2017, dated 2023)
